According to patent publication US20240368125A1, “NOVEL PYRAZINYL-TRIAZOLE COMPOUNDS AS PESTICIDES” (Bayer Aktiengesellschaft, priority 2021, published 2024):

Tests used:
Type in all cases: in vivo
[1] = system: Rhipicephalus (Boophilus) microplus larvae (strain Parkhurst, resistant against synthetic pyrethroids); test: Rhipicephalus (Boophilus) microplus in-vitro contact test, larval cattle tick; conditions: 1 μg/cm^2 (=100 g/ha), after 48 hours; for pest or weed control at 1 µg/cm2: Rhipicephalus microplus, read-out: efficacy (larvae dead or moribund)
Description: Rhipicephalus (Boophilus) Microplus—In-Vitro Contact Tests Larval Cattle Tick (Strain Parkhurst, Resistant Against Synthetic Pyrethroids
(§1) 9 mg compound is solved in 1 mL acetone and diluted with acetone to the desired concentration. 250 μL of the test solution is filled in 25 mL glass test tubes and homogeneously distributed on the inner walls by rotation and tilting on a shaking device (2 h at 30 rpm). With a compound concentration of 900 ppm, an inner surface of 44.7 cm^2 and a homogeneous distribution, a dose of 5 μg/cm^2 is achieved.
After the solvent has evaporated, each test tube is filled with 20-50 cattle tick larvae (Rhipicephalus microplus), closed with a perforated lid and incubated in a horizontal position at 85% relative humidity and 27° C. in an incubator. After 48 hours efficacy is determined. The larvae are patted on the ground of the tubes and negative geotactic behavior is recorded.

[2] = system: adult cat fleas (Ctenocephalides felis); test: Ctenocephalides felis in-vitro contact test, adult cat flea; conditions: 1 μg/cm^2 (=100 g/ha), after 48 hours
Description: Ctenocephalides Felis—In-Vitro Contact Tests Adult Cat Flea
as §1
(§2) After the solvent has evaporated, each test tube is filled with 5-10 adult cat fleas (Ctenocephalides felis), closed with a perforated lid and incubated in a lying position at room temperature and relative humidity. After 48 hours efficacy is determined. The fleas are patted on the ground of the tubes and are incubated on a heating plate at 45-50° C. for at most 5 minutes. Immotile or uncoordinated moving fleas, which are not able to escape the heat by climbing upwards, are marked as dead or moribund.
An efficacy of 100% means all fleas are dead or moribund; 0% means no fleas are dead or moribund.

[3] = system: adult brown dog ticks (Rhipicephalus sanguineus); test: Rhipicephalus sanguineus in-vitro contact test, adult brown dog ticks; conditions: 1 μg/cm^2 (=100 g/ha), after 48 hours; for pest or weed control at 1 µg/cm2, 100 g/ha: Rhipicephalus sanguineus, read-out: efficacy (ticks dead or moribund)
Description: Rhipicephalus sanguineus—In-Vitro Contact Tests with Adult Brown Dog Ticks
as §1
as §2, with “brown dog ticks (Rhipicephalus sanguineus),” for “cat fleas (Ctenocephalides felis),”, “ticks” for “fleas”, “ticks,” for “fleas,”
An efficacy of 100% means all ticks are dead or moribund; 0% means no ticks are dead or moribund.

[4] = system: fall armyworm larvae (Spodoptera frugiperda); test: Spodoptera frugiperda spray test (SPODFR); conditions: in Zea mays, 168 h
Description: Spodoptera frugiperda—Spray Test
Solvent: 78.0 parts by weight acetone • 1.5 parts by weight dimethylformamide
(§3) Emulsifier: alkylarylpolyglycol ether
(§4) To produce a suitable preparation of active compound, 1 part by weight of active compound is mixed with the stated amount of solvents and is diluted with water, containing an emulsifier concentration of 1000 ppm, to the desired concentration. Further test concentrations are prepared by dilution with emulsifier containing water.
Maize (Zea mays) leaf sections are sprayed with a preparation of the active ingredient of the desired concentration. Once dry, the leaf sections are infested with fall armyworm larvae (Spodoptera frugiperda).
After 7 days mortality in % is determined. 100% means all caterpillars have been killed and 0% means none of the caterpillars have been killed.
Spodoptera frugiperda—Spray Test (SPODFR
After the specified period of time, mortality in % is determined. 100% means all caterpillars have been killed and 0% means none of the caterpillars have been killed.

[5] = system: larvae of the banded cucumber beetle (Diabrotica balteata); test: Diabrotica balteata spray test; conditions: 100 g/ha (=32 μg/well), wheat seeds, after 7 days
Description: Diabrotica balteata—Spray Test
Solvent: 78.0 parts by weight of acetone • • 1.5 parts by weight of dimethylformamide
as §3
as §4, with “solvent,” for “solvents”, “and the concentrate” for “and”
Soaked wheat seeds (Triticum aestivum) are placed in a multiple well plate filled with agar and some water and are incubated for 1 day to germinate (5 seeds per well). The germinated wheat seeds are sprayed with a test solution containing the desired concentration of the active ingredient. Afterwards each unit is infected with 10-20 larvae of the banded cucumber beetle (Diabrotica balteata).
After 7 days efficacy in % is determined. 100% means all the seedlings have grown up like in the untreated, uninfected control; 0% means none of the seedlings have grown.

Compound | efficacy (seedlings grown) [5] | efficacy (larvae dead or moribund) [1] | other results
C[C@H](NC(=O)c1cc(OC(F)(F)F)cc(OC(F)(F)F)c1)c1ncnn1-c1cnc(C(N)=O)cn1 [Example I-029] | – | – | pest or weed control at 1 µg/cm2 [1]: 100%; pest or weed control at 1 µg/cm2 ([2]; Ctenocephalides felis, read-out: efficacy (fleas dead or moribund)): 100%; pest or weed control at 1 µg/cm2, 100 g/ha [3]: 100%; mortality at 100 g/ha [4]: 100%
C[C@H](NC(=O)c1cc(Cl)cc(S(C)(=O)=O)c1)c1ncnn1-c1cnc(C(=O)NCC#N)cn1 [Example I-088] | 100% | – | –
C[C@H](NC(=O)c1cc(OC(F)(F)F)cc(OC(F)(F)F)c1)c1ncnn1-c1cnc(C(=O)N(C)C)cn1 [Example I-025] | 100% | 100% | efficacy (fleas dead or moribund) [2]: 100%; efficacy (ticks dead or moribund) [3]: 100%
Cc1nc([C@H](C)NC(=O)c2cc(OC(F)(F)F)cc(C3(C)CC3)c2)n(-c2cnc(C(=O)N(C)C)cn2)n1 [Example I-053] | – | 100% | efficacy (fleas dead or moribund) [2]: 80%; efficacy (ticks dead or moribund) [3]: 100%
Cc1nc([C@H](C)NC(=O)c2cc(OC(F)(F)F)cc(OC(F)(F)F)c2)n(-c2cnc(C(=O)N(C)CC#N)cn2)n1 [Example I-101] | 100% | – | –
C[C@H](NC(=O)c1cc(OC(F)(F)F)cc(S(C)(=O)=O)c1)c1ncnn1-c1cnc(C(=O)N(C)CC#N)cn1 [Example I-104] | 100% | – | –
CCN(C)C(=O)c1cnc(-n2nc(C)nc2[C@H](C)NC(=O)c2cc(OC(F)(F)F)cc(OC(F)(F)F)c2)cn1 [Example I-038] | 100% | 100% | efficacy (fleas dead or moribund) [2]: 100%; efficacy (ticks dead or moribund) [3]: 100%
Cc1nc([C@H](C)NC(=O)c2cc(OC(F)(F)F)cc(C3CC3)c2)n(-c2cnc(C(N)=O)cn2)n1 [Example I-046] | 100% | 100% | –
C[C@H](NC(=O)c1cc(OC(F)F)cc(OC(F)F)c1)c1nc(C2CC2)nn1-c1cnc(C(N)=O)cn1 [Example I-070] | 100% | – | –
C[C@H](NC(=O)c1cc(OC(F)(F)F)cc(OC(F)(F)F)c1)c1nc(C2CC2)nn1-c1cnc(C(=O)N(C)C)cn1 [Example I-027] | – | – | pest or weed control at 1 µg/cm2 [1]: 100%; mortality at 100 g/ha [4]: 83%
C[C@H](NC(=O)c1cc(OC(F)(F)F)cc(OC(F)(F)F)c1)c1nc(C2CC2)nn1-c1cnc(C(N)=O)cn1 [Example I-062] | 100% | 100% | –
CNC(=O)c1cnc(-n2nc(C)nc2[C@H](C)NC(=O)c2cc(OC(F)(F)F)cc(C3(C#N)CC3)c2)cn1 [Example I-054] | 100% | – | –
C[C@H](NC(=O)c1cc(Cl)cc(S(F)(F)(F)(F)F)c1)c1nc(C2CC2)nn1-c1cnc(C(N)=O)cn1 [Example I-074] | 80% | – | –
C[C@H](NC(=O)c1cc(Br)cc(S(F)(F)(F)(F)F)c1)c1nc(C2CC2)nn1-c1cnc(C(N)=O)cn1 [Example I-075] | 100% | – | –
C[C@H](NC(=O)c1cc(Br)cc(C(C)(C)F)c1)c1ncnn1-c1cnc(C(N)=O)cn1 [Example I-063] | 100% | – | –
Cc1nc([C@H](C)NC(=O)c2cc(OC(F)(F)F)cc(S(C)(=O)=O)c2)n(-c2cnc(C(=O)NCC#N)cn2)n1 [Example I-087] | 100% | – | –

Compound | efficacy (seedlings grown) [5] | efficacy (larvae dead or moribund) [1] | other results
Cc1nc([C@H](C)NC(=O)c2cc(OC(F)(F)F)cc(OC(F)(F)F)c2)n(-c2cnc(C(=O)N(C)C)cn2)n1 [Example I-037] | 100% | 100% | efficacy (fleas dead or moribund) [2]: 100%; efficacy (ticks dead or moribund) [3]: 100%
C[C@H](NC(=O)c1cc(OC(F)(F)F)cc(OC(F)(F)F)c1)c1ncnn1-c1cnc(C(=O)NC2CC2)cn1 [Example I-024] | 100% | 100% | efficacy (ticks dead or moribund) [3]: 100%
C[C@H](NC(=O)c1cc(OC(F)(F)F)cc(OC(F)(F)F)c1)c1ncnn1-c1cnc(C(=O)N(C)CC#N)cn1 [Example I-105] | 100% | – | –
CNC(=O)c1cnc(-n2ncnc2[C@H](C)NC(=O)c2cc(Cl)cc(S(C)(=O)=O)c2)cn1 [Example I-098] | – | 100% | –
C[C@H](NC(=O)c1cc(OC(F)(F)F)cc(S(C)(=O)=O)c1)c1nc(C2CC2)nn1-c1cnc(C(N)=O)cn1 [Example I-095] | 100% | – | –
CCNC(=O)c1cnc(-n2nc(C)nc2[C@H](C)NC(=O)c2cc(OC(F)(F)F)cc(OC(F)(F)F)c2)cn1 [Example I-035] | – | – | pest or weed control at 1 µg/cm2 [1]: 100%; mortality at 100 g/ha [4]: 100%
C[C@H](NC(=O)c1cc(C(F)(F)F)cc(C(F)(F)F)c1)c1nc(C2CC2)nn1-c1cnc(C(=O)NC2CC2)cn1 [Example I-056] | 100% | 100% | –
C[C@H](NC(=O)c1cc(OC(F)F)cc(OC(F)F)c1)c1ncnn1-c1cnc(C(=O)NCC#N)cn1 [Example I-089] | 100% | – | –
C[C@H](NC(=O)c1cc(C(F)(F)F)cc(C(F)(F)F)c1)c1nc(C2CC2)nn1-c1cnc(C(N)=O)cn1 [Example I-057] | 100% | – | –
CCNC(=O)c1cnc(-n2nc(C)nc2[C@H](C)NC(=O)c2cc(C(F)(F)F)cc(C(F)(F)F)c2)cn1 [Example I-013] | – | – | pest or weed control at 1 µg/cm2 [1]: 100%; pest or weed control at 1 µg/cm2, 100 g/ha [3]: 100%; mortality at 100 g/ha [4]: 100%
C[C@H](NC(=O)c1cc(OC(F)(F)C(F)F)cc(S(C)(=O)=O)c1)c1ncnn1-c1cnc(C(=O)NCC#N)cn1 [Example I-096] | 100% | – | –
C[C@H](NC(=O)c1cc(C(F)(F)F)cc(C(F)(F)F)c1)c1nc(C2CC2)nn1-c1cnc(C(=O)N(C)C2CC2)cn1 [Example I-058] | 100% | – | –
CNC(=O)c1cnc(-n2nc(C)nc2[C@H](C)NC(=O)c2cc(OC(F)(F)F)cc(C3CC3)c2)cn1 [Example I-045] | 100% | 100% | efficacy (fleas dead or moribund) [2]: 100%; efficacy (ticks dead or moribund) [3]: 100%
Cc1nc([C@H](C)NC(=O)c2cc(OC(F)(F)F)cc(C3(C#N)CC3)c2)n(-c2cnc(C(=O)N(C)C)cn2)n1 [Example I-055] | – | 100% | efficacy (fleas dead or moribund) [2]: 100%; efficacy (ticks dead or moribund) [3]: 80%
Cc1nc([C@H](C)NC(=O)c2cc(OC(F)(F)F)cc(S(C)(=O)=O)c2)n(-c2cnc(C(=O)N(C)C3CC3)cn2)n1 [Example I-040] | – | 100% | efficacy (fleas dead or moribund) [2]: 100%; efficacy (ticks dead or moribund) [3]: 100%
C[C@H](NC(=O)c1cc(OC(F)(F)F)cc(S(C)(=O)=O)c1)c1ncnn1-c1cnc(C(=O)NCC#N)cn1 [Example I-086] | 100% | – | –
